Results reported in patent US10065990B2, “Cyclic peptide compound, and preparation method, pharmaceutical composition and use thereof” (HANGZHOU GUANYU BIO-MEDICAL CO., LTD, priority 2013, dated 2018).
Like-named read-outs stand apart in the source and are kept apart here.

How the values were obtained:
[1] = target: T1, HDAC7 (Homo sapiens, UniProt Q8WUI4); test: HDAC biochemical activity measurement (fluorescent substrate deacetylation);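 also: fluorogenic deacetylation assay using acetyl-lysine substrate at 20 µM, enzyme and compound incubated 30 min at 37 °C, then developer added, fluorescence read at 360/460 nm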; details: HDAC7; 37° C. 30 minutes
T1 sequence (Q8WUI4 1-952): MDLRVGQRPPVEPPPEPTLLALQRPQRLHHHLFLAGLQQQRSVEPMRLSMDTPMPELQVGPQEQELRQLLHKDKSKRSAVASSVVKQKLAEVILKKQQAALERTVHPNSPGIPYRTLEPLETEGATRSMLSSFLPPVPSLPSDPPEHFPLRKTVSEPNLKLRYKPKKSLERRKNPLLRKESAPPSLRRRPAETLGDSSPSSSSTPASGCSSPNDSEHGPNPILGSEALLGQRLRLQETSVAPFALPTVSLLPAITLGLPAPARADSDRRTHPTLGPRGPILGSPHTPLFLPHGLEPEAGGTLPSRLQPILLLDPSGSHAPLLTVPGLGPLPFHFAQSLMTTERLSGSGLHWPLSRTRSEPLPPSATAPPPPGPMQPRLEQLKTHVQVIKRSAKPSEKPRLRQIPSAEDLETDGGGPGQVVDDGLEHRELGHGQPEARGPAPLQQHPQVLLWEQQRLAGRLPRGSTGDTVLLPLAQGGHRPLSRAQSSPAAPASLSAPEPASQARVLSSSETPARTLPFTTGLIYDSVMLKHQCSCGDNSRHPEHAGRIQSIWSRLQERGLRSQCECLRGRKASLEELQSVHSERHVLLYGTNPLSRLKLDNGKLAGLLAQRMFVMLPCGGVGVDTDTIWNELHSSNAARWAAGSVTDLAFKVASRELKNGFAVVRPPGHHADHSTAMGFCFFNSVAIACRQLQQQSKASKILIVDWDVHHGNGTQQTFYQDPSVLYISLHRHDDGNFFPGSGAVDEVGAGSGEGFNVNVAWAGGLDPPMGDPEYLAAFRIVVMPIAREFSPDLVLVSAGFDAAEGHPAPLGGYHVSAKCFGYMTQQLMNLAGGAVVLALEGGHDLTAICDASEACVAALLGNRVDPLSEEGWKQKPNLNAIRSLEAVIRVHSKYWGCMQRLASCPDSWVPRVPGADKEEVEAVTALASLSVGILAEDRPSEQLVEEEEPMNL

[2] = tested on: A549 (human lung cancer cells); test: MTT cancer cell growth inhibition; assay type: cell-based; details: Homo sapiens, A549, 72 h, MTT, 72 hours incubation, read-out: GI50 A54
In short: (§1)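 Seed 1500 cells/well, incubate overnight. Add compound, 10^−5 to 10^−10 M final, n=3; culture 72 h, 37° C., 5% CO2. Add MTT, 4 h. Discard supernatant, dissolve in DMSO. Read 570 nm; calculate viability and GI50.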

[3] = tested on: BGC-823 (human gastric cancer cells); test: MTT cancer cell growth inhibition; assay type: cell-based; details: Homo sapiens, BGC-823, 72 h, MTT, 72 hours incubation, read-out: GI50 BG
In short: as §1

[4] = tested on: Bel-7402 (human hepatoma cells); test: MTT cancer cell growth inhibition; assay type: cell-based; details: Homo sapiens, Bel-7402, 72 h, MTT, 72 hours incubation, Bel-7402 cells; read-out: GI50 Bel-7402
In short: as §1

[5] = tested on: DU145 (human prostate cancer cells); test: MTT cancer cell growth inhibition; assay type: cell-based; details: Homo sapiens, DU-145, 72 h, MTT, 72 hours incubation, read-out: GI50 Du1
In short: as §1

[6] = tested on: H1975 (non-small cell lung adenocarcinoma); test: MTT cancer cell growth inhibition; assay type: cell-based; details: Homo sapiens, NCI-H1975, 72 h, MTT, 72 hours incubation, H1975 cells; read-out: GI50 H1975
In short: as §1

[7] = tested on: HCC827 (human non-small cell lung cancer cells); test: MTT cancer cell growth inhibition; assay type: cell-based; details: Homo sapiens, HCC827, 72 h, MTT, 72 hours incubation, HCC827 cells; read-out: GI50 HCC827
In short: as §1

[8] = tested on: HT1080 (human fibrosarcoma cells); test: MTT cancer cell growth inhibition; assay type: cell-based; details: Homo sapiens, HT-1080, 72 h, MTT, 72 hours incubation, read-out: GI50 HT1
In short: as §1

[9] = tested on: Hela (human cervical cancer cells); test: MTT cancer cell growth inhibition; assay type: cell-based; details: Homo sapiens, HeLa, 72 h, MTT, 72 hours incubation, read-out: GI50 Hela
In short: as §1

[10] = tested on: Huh-7 (human hepatoma cells); test: MTT cancer cell growth inhibition; assay type: cell-based; details: Homo sapiens, Huh-7, 72 h, MTT, 72 hours incubation, Huh-7 cells; read-out: GI50 Huh-7
In short: as §1

[11] = tested on: K562 (human leukemia cells); test: MTT cancer cell growth inhibition; assay type: cell-based; details: Homo sapiens, K562, 72 h, MTT, 72 hours incubation, K562 cells; read-out: GI50 K562
In short: as §1

[12] = tested on: KBM-5 (human chronic myelogenous leukemia); test: MTT cancer cell growth inhibition; assay type: cell-based; details: Homo sapiens, KBM5, 72 h, MTT, 72 hours incubation, KBM-5 cells; read-out: GI50 KBM-5
In short: as §1

[13] = tested on: KBM5-T315I (human chronic myelogenous leukemia); test: MTT cancer cell growth inhibition; assay type: cell-based; details: Homo sapiens, 72 h, MTT, 72 hours incubation, KBM5-T315I cells; read-out: GI50 KBM5-T315I
In short: as §1

[14] = tested on: MCF-7 (human breast cancer cells); test: MTT cancer cell growth inhibition; assay type: cell-based; details: Homo sapiens, MCF7, 72 h, 72 hours incubation, read-out: GI50 MCF
In short: as §1

[15] = tested on: MDA-MB-231 (breast cancer cells); test: MTT cancer cell growth inhibition; assay type: cell-based; details: Homo sapiens, MDA-MB-231, 72 h, read-out: GI50 MDA-MB-231, MTT, 72 hours incubation, MDA-MB-231 cells
In short: as §1

[16] = tested on: MOLT-4 (human acute lymphoblastic leukemia cells); test: MTT cancer cell growth inhibition; assay type: cell-based; details: Homo sapiens, MOLT-4, 72 h, MTT, 72 hours incubation, read-out: GI50 Mol
In short: as §1

[17] = tested on: N-87 (human gastric cancer cells); test: MTT cancer cell growth inhibition; assay type: cell-based; details: Homo sapiens, 72 h, MTT, 72 hours incubation, N-87 cells; read-out: GI50 N-87
In short: as §1

[18] = tested on: PANC-1 (Pac-1, human pancreatic cancer cells); test: MTT cancer cell growth inhibition; assay type: cell-based; details: Homo sapiens, PANC-1, 72 h, MTT, 72 hours incubation, read-out: GI50 PAN
In short: as §1

[19] = tested on: SGC-7901 (human gastric cancer cells); test: MTT cancer cell growth inhibition; assay type: cell-based; details: Homo sapiens, SGC-7901, 72 h, MTT, 72 hours incubation, SGC-7901 cells; read-out: GI50 SGC-7901
In short: as §1

[20] = tested on: U937 (human leukemia cells); test: MTT cancer cell growth inhibition; assay type: cell-based; details: Homo sapiens, U-937, 72 h, MTT, 72 hours incubation, read-out: GI50 U93
In short: as §1

[21] = tested on: lncap (prostate cancer cells); test: MTT cancer cell growth inhibition; assay type: cell-based; details: Homo sapiens, LNCaP, 72 h, MTT, 72 hours incubation, read-out: GI50 lnca
In short: as §1

Structure (SMILES)	IC50 HDAC7 [1]	GI50 ([2]; A549 cells)	GI50 ([3]; BGC-823 cells)	GI50 [4]	GI50 ([5]; DU145 cells)	GI50 [6]	GI50 [7]	GI50 ([8]; HT1080 cells)	GI50 ([9]; Hela cells)	GI50 [10]	GI50 [11]	GI50 [12]	GI50 [13]	GI50 ([14]; MCF-7 cells)	GI50 [15]	GI50 ([16]; MOLT-4 cells)	GI50 [17]	GI50 ([18]; PANC-1 cells)	GI50 [19]	GI50 ([20]; U937 cells)	other results
C/C=C1\NC(=O)c2nc(ccc2F)CNC(=O)C[C@@H](/C=C/CCS)OC(=O)[C@H](Cc2cccc3ccccc23)NC1=O [Compound 124]	no activity	–	–	0.072 µM	–	0.028 µM	0.035 µM	–	–	0.016 µM	0.076 µM	0.057 µM	0.015 µM	–	0.051 µM	–	0.045 µM	–	0.042 µM	–	GI50 [2]: 0.05 µM; GI50 [3]: 0.03 µM; GI50 [5]: 0.02 µM; GI50 [8]: 0.03 µM; GI50 [9]: 0.03 µM; GI50 [14]: 0.03 µM; GI50 [16]: 0.05 µM; GI50 [18]: 0.69 µM; GI50 [20]: 0.1 µM; GI50 [21]: 0.07 µM
C/C=C1\NC(=O)c2ccc(SC)c(n2)CNC(=O)C[C@@H](/C=C/CCS)OC(=O)[C@H](CC)NC1=O [Compound 231]	no activity	0.06 µM	0.01 µM	0.058 µM	0.05 µM	0.025 µM	0.077 µM	0.03 µM	0.04 µM	0.048 µM	0.037 µM	0.038 µM	0.057 µM	0.08 µM	0.025 µM	0.05 µM	0.036 µM	0.01 µM	0.011 µM	0.08 µM	GI50 ([21]; lncap cells): 0.03 µM

These reach a lower GI50 [4]. Values come first.

IC50 HDAC7 [1]	GI50 ([2]; A549 cells)	GI50 ([3]; BGC-823 cells)	GI50 [4]	GI50 ([5]; DU145 cells)	GI50 [6]	GI50 [7]	GI50 ([8]; HT1080 cells)	GI50 ([9]; Hela cells)	GI50 [10]	GI50 [11]	GI50 [12]	GI50 [13]	GI50 ([14]; MCF-7 cells)	GI50 [15]	GI50 ([16]; MOLT-4 cells)	GI50 [17]	GI50 ([18]; PANC-1 cells)	GI50 [19]	GI50 ([20]; U937 cells)	Structure (SMILES)	other results
no activity	0.03 µM	0.04 µM	0.052 µM	0.1 µM	0.063 µM	0.089 µM	0.02 µM	0.07 µM	0.016 µM	0.039 µM	0.036 µM	0.021 µM	0.05 µM	0.039 µM	0.03 µM	0.028 µM	0.05 µM	0.043 µM	0.04 µM	C/C=C1\NC(=O)c2nc(ccc2SC)CNC(=O)C[C@@H](/C=C/CCSC(C)=O)OC(=O)[C@H](Cc2ccccc2)NC1=O [Compound 186]	GI50 ([21]; lncap cells): 0.03 µM
no activity	0.03 µM	0.02 µM	0.036 µM	0.05 µM	0.067 µM	0.037 µM	0.03 µM	0.06 µM	0.083 µM	0.028 µM	0.063 µM	0.019 µM	0.03 µM	0.056 µM	0.04 µM	0.028 µM	0.02 µM	0.073 µM	0.02 µM	C=C1NC(=O)c2nc(ccc2SC)CNC(=O)C[C@@H](/C=C/CCSC(C)=O)OC(=O)[C@H](C(C)C)NC1=O [Compound 204]	GI50 ([21]; lncap cells): 0.05 µM
no activity	0.02 µM	0.03 µM	0.032 µM	0.06 µM	0.019 µM	0.027 µM	0.08 µM	0.05 µM	0.054 µM	0.055 µM	0.053 µM	0.028 µM	0.04 µM	0.035 µM	0.05 µM	0.075 µM	0.05 µM	0.096 µM	0.02 µM	C/C=C1\NC(=O)c2nc(ccc2SC)CCNC(=O)C[C@@H](/C=C/CCSC(C)=O)OC(=O)[C@H](C(C)C)NC1=O [Compound 223]	GI50 ([21]; lncap cells): 0.01 µM
